Laboratory results as given in ChEMBL document CHEMBL1129125, “Tc-99m-labeled fibrinogen receptor antagonists: design and synthesis of cyclic RGD peptides for the detection of thrombi” (Bioorg Med Chem Lett, 1996).

How the values were obtained:
Format in all cases: functional, organism-based
Conditions in all cases: Canis lupus familiaris; tested as the 125I-labelled form
[1] = organism: Canis familiaris; assay: Compound was tested for uptake in thrombus in the canine arteriovenous shunt model in arterial rich condition.
[2] = organism: Canis familiaris; assay: Compound was tested for uptake in thrombus in the canine arteriovenous shunt model in venous rich condition.
[3] = organism: Canis familiaris; assay: Thrombus and blood ratio was determined in the canine arteriovenous shunt model in arterial rich condition.
[4] = organism: Canis familiaris; assay: Thrombus and blood ratio was determined in the canine arteriovenous shunt model in venous rich condition.

SMILES	ID/g [1] [%]	ID/g [2] [%]	Uptake ratio [3]	Uptake ratio [4]
CN1C(=O)[C@@H](CCCCNC(=O)CCc2ccc(O)c(I)c2)NC(=O)c2cccc(c2)CNC(=O)[C@H](CC(=O)O)NC(=O)CNC(=O)[C@@H]1CCCN=C(N)N	2.6	0.45	43.9	7.82
CN1C(=O)[C@@H](Cc2ccc(O)c(I)c2)NC(=O)c2cccc(c2)CNC(=O)[C@H](CC(=O)O)NC(=O)CNC(=O)[C@@H]1CCCN=C(N)N	1.81	0.25	173	19.3
